Measurements reported in ChEMBL document CHEMBL3045581, “Preliminary evaluation of rat kidney aldose reductase inhibitory activity of 2-phenylindole derivatives: affiliation to antioxidant activity” (Med Chem Res, 2007).
Calls of active or inactive are those of the source. The calls are words filed in the database; no cut-off is given here.

What was measured:
[1] = target: Aldo-keto reductase family 1 member B1 (Rattus norvegicus) (UniProt P07943); test: Inhibition of Rattus norvegicus albino (rat) kidney aldose reductase using D-L-glyceraldehyde as substrate assessed as decrease in NADPH level measured for 5 min by spectrophotometric analysis
Liver [2] = test: Antioxidant activity in Rattus norvegicus (rat) liver assessed as superoxide anion scavenging activity at 10^-3 to 10^-4 M; type: functional, tissue-based
Liver [3] = test: Antioxidant activity in Rattus norvegicus (rat) liver assessed as DPPH free radical scavenging activity at 10^-3 to 10^-4 M; type: functional, tissue-based

| inhibition [1] | SMILES | Activity (Liver [2]) | Activity (Liver [3]) |
| --- | --- | --- | --- |
| inactive | O=Cc1c(-c2ccc(F)cc2)[nH]c2ccccc12 | inactive | inactive |
| 5.29% | O=[N+]([O-])c1cc(-c2cc3ccccc3[nH]2)ccc1Cl | Active | Active |
| inactive | O=Cc1c(-c2ccc(Cl)cc2)[nH]c2ccccc12 | inactive | inactive |
| 7.64% | O=Cc1c(-c2ccccc2)[nH]c2ccccc12 | inactive | inactive |

The next lines start with the compound.

| SMILES | inhibition [1] | Activity (Liver [2]) | Activity (Liver [3]) |
| --- | --- | --- | --- |
| c1ccc(-c2cc3ccccc3[nH]2)cc1 | inactive | inactive | inactive |
| Clc1ccc(-c2cc3ccccc3[nH]2)cc1 | inactive | Active | inactive |
| Fc1ccc(-c2cc3ccccc3[nH]2)cc1 | inactive | Active | inactive |
| Nc1ccc(-c2cc3ccccc3[nH]2)cc1 | 11% | Active | Active |
| Clc1ccc(-c2cc3ccccc3[nH]2)cc1Cl | inactive | Active | inactive |
| O=Cc1c(-c2ccc(Cl)c([N+](=O)[O-])c2)[nH]c2ccccc12 | inactive | inactive | inactive |
| Nc1ccc(-c2[nH]c3ccccc3c2C=O)cc1 | inactive | inactive | inactive |
| O=[N+]([O-])c1cc([N+](=O)[O-])c2[nH]c(-c3ccccc3)cc2c1 | inactive | Active | Active |
